# Laboratory results taken from US20040092548A1, “OPHTHALMIC TREATMENT” (priority 1995, published 2004).
# Where a name gives a salt, the structure may show the parent alone.
# Key:
# [1] = test system: white New Zealand rabbits; test: Mydriatic response (pupil dilation, RRmax) after ocular dosing of ephedrine hydrochloride; type: in vivo; settings: 5 μl of 5% solution (250 μg) as droplet stream compared with 5 μl 5% and 25 μl 1% instillates (250 μg each); rabbit
# Protocol: Six white New Zealand rabbits were administered with the following dosage regimen:
# I→25 μl of 1% aqueous ephedrine hydrochloride solution (250 μg) via pipette (instillate)
# II→5 μl of 5% aqueous ephedrine hydrochloride solution (250 μg) via pipette (instillate)
# III→5 μl of 5% aqueous ephedrine hydrochloride solution (250 μg) in a jet/stream of droplets of diameter in the range 200 to 400 μm.
# Pupil diameter measurements were determined from photographs acquired using a Pentax ME super 35 mm camera fitted with a SMC Pentax 50 mm lens and a 2x converter. An aperture setting of 12, and a shutter speed of 1/15 was employed with a film speed of ISO 400 (Kodak Gold 400). The camera was held stationary on a tripod and positioned approximately 30-40 cm from the rabbits eye. Prior to each dosing period the animals were acclimatised to experimental conditions (constant light intensity, minimal distractions) for 20 min. The rabbits were placed in restraining boxes and settled before photographs and baseline pupil diameters were determined 5 min prior to dosing.
# Pupillary diameters were determined from the developed colour prints (6×4) using an electronic micrometer (Digimatic Caliper, Mitutoyo Corp., Japan). […] The maximum response ratio (RRmax) for pupil dilation was then calculated from the photographs using the following relationship: […]
# [2] = test system: white New Zealand rabbits; test: Miotic response (pupil diameter) after ocular dosing of pilocarpine hydrochloride, randomised cross-over study; type: in vivo; settings: rabbit; for AUC (0-4 hours), area under the pupillary diameter vs. time curve / RR max: ± SD
# Protocol: Ten white New Zealand rabbits were treated with the following dosage regimen in a randomised cross-over study:
# 30 μl of 1% aqueous pilocarpine hydrochloride solution (300 μg) was instilled via pipette into the conjunctival sac 5 μl of 1% aqueous pilocarpine hydrochloride solution (50 μg) was applied as a jet and/or stream of droplets (with a diameter in the range of 200 μm to 400 μm) to the surface of the cornea.
# In order to determine pupil diameters, a metallic rule with a circular aperture of known diameter was orientated perpendicular to, and at an appropriate fixed distance from, a video camera fitted with a macro lens (Sony V8 Pro-CDD-V100E) throughout the study. During miotic measurements, the animals were positioned such that the left eye was parallel to the ruler and equidistant from the video camera. The video camera was actuated to project and amplify images of both the reference aperture and left eye onto the monitor screen. The diameters of both the reference aperture and pupil were then measured on the screen using a ruler placed on the projected image at an angle of approximately […]. The value of the pupil diameter was then calculated by multiplying the projected screen pupil diameter by the ratio of the actual reference diameter (8 mm) to the projected screen reference diameter (18 mm).
# Pupil measurements were taken at approximately 60, 45, 30 and 15 minute intervals prior to administration of the treatments to provide a baseline value, and then at 15 minute intervals for the first hour after dosing. Thereafter, the pupil diameter was measured at 30 minute intervals for a minimum duration of 4 hours after dose administration.
# For the purpose of statistical analysis of variants between treatments, the following parameters were determined: RR max=(pupil diameter at time t−pupil diameter at time 0)/pupil diameter at time 0; T max=the first time point at which the smallest pupillary diameter was observed; and AUC (0-4 hours)=the area under the pupillary diameter vs. time curve between 0 and 4 hours after treatment.
# All significance tests were two-tailed and were performed at the 5% significance level. The statistical software SAS V607 and the PROC GLM procedure were used in the analysis.
# [3] = Ocular distribution study of tritiated propranolol hydrochloride; type: in vivo, rabbit
# Protocol: 40 μl of 0.5% aqueous tritiated propranolol hydrochloride solution (200 μg) was administered via pipette into the conjunctival sac of twelve New Zealand white rabbit eyes. Seperately, 5 μl of 4% aqueous tritiated propranolol hydrochloride solution (200 μg) was applied as a jet or stream of droplets (with a diameter in the range of 200 μm to 400 μm) to the surface (cornea and/or conjunctiva) of twelve different New Zealand white rabbit eyes
# Following each treatment, four eyes were ennucleated after 15 minutes, four after 30 minutes and the remaining four after 60 minutes. In each case, the animals were humanely killed prior to the ocular ennucleation procedure via an overdose of sodium pentobarbitol injected into a marginal ear vein. Each eye was then irrigated by instilling 100 μl of normal saline into the conjunctival sac using an automatic pipette and immediately blotting away excess saline with paper tissue to remove any radioactivity in the tear film. Following ennucleation and removal of the adnexal tissue, the cornea was washed with a second 100 μl of normal saline. The aqueous humor was then quickly removed by paracentesis with a 1 ml syringe and 26G needle. To this was then added an equal volume of trichloroacetic acid (TCA) solution (10% w/v) to bring the final concentration to 5% w/v TCA. Both eyes were then dissected from the posterior pole to allow removal of the vitreous humor and the lens, whilst the iris-cilary body was transferred to a tared sample tube. The cornea was then removed using a 12 mm trephine, and the limbal cornea and conjunctiva (with underlying sclera) cut free into a strip approximately 5 mm wide using a scalpel and scissors. Each sample was then weighed in a tared sample tube and at least 5 volumes of TCA (6% w/v) added. All tissue samples were subjected to sonication for 5 minutes, then centrifuged at 10 000 g.min. to yield a supernatent. Each supernatent was then extracted 3 times with 3 volumes of ether and, after evaporation of residual solvent, the aqueous residue was sampled and added to 5 ml of FluoronSafe XE “Scintron” scintillation fluid (BDH Chemicals, UK). Radioactivity was then determined by counting in a Packard 1600DR beta-scintillation counter. Data gathered as counts per minute was then converted into disintegrations per minute (dpm), using external standardisation, and expressed as dpm […] after adjusting for the total radioactivity in each dose. Due to the small number of samples per time point per treatment, statistical analysis was not considered appropriate for this study.
# The results of this study are summarised for the different ocular tissues in tables 1 to 4 below, where the values shown represent dpm (disintegrations per minute) per mg of tissue.
# [4] = cited from earlier work
# [5] = 1% 5 μl jet and/or stream of droplets (50 μg) to cornea
# [6] = 1% 30 μl large eyedrop (300 μg) instilled into conjunctival sac
# [7] = 0.5% 40 μl large eyedrop (200 μg), 15 mins
# [8] = 0.5% 40 μl large eyedrop (200 μg), 30 mins
# [9] = 0.5% 40 μl large eyedrop (200 μg), 60 mins
# [10] = 4.0% 5 μl jet and/or stream of droplets (200 μg), 15 mins
# [11] = 4.0% 5 μl jet and/or stream of droplets (200 μg), 30 mins
# [12] = 4.0% 5 μl jet and/or stream of droplets (200 μg), 60 mins
# [13] = 5 μl eye drop loaded with 26.1 μg
smiles,measurement,setting,value
"CN[C@@H](C)[C@H](O)c1ccccc1 [Ephedrine, ephedrine hydrochloride]","Mydriatic response (RRmax vs time, FIG. 1)",[1],more pronounced and maintained over a longer duration compared to both instillates
"CC[C@@H]1C(=O)OC[C@@H]1Cc1cncn1C [Pilocarpine, pilocarpine hydrochloride]","AUC (0-4 hours), area under the pupillary diameter vs. time curve",[2]; [5],3827 ± 312 mmMin.
same,RR max,[2]; [5],12.3 ± 5.2 %
same,"AUC (0-4 hours), area under the pupillary diameter vs. time curve",[2]; [6],3871 ± 340 mmMin.
same,RR max,[2]; [6],15.2 ± 4.0 %
same,Pupil diameter after administration,"[2]; both dose forms (30 μl eyedrop 300 μg; 5 μl jet 50 μg), after 15 minutes",reduction in pupil diameter was evident
same,Time after treatment at which the miotic effect started to disappear,[2]; both dose forms,60 to 90 min
same,Time after which pupil measurements had fully recovered to predose levels,[2]; both dose forms,120 min
"CC(C)NCC(O)COc1cccc2ccccc12 (centres unmarked) [Propranolol, propranolol hydrochloride]",Radioactivity in aqueous humor,[3]; [7],1310 dpm per mg of tissue
same,Radioactivity in conjunctiva/sclera,[3]; [7],2569 dpm per mg of tissue
same,Radioactivity in cornea,[3]; [7],5579 dpm per mg of tissue
same,Radioactivity in iris-cilary body,[3]; [7],942 dpm per mg of tissue
same,Radioactivity in aqueous humor,[3]; [8],960 dpm per mg of tissue
same,Radioactivity in conjunctiva/sclera,[3]; [8],2838 dpm per mg of tissue
same,Radioactivity in cornea,[3]; [8],3467 dpm per mg of tissue
same,Radioactivity in iris-cilary body,[3]; [8],1033 dpm per mg of tissue
same,Radioactivity in aqueous humor,[3]; [9],705 dpm per mg of tissue
same,Radioactivity in conjunctiva/sclera,[3]; [9],1380 dpm per mg of tissue
same,Radioactivity in cornea,[3]; [9],2945 dpm per mg of tissue
same,Radioactivity in iris-cilary body,[3]; [9],799 dpm per mg of tissue
same,Radioactivity in aqueous humor,[3]; [10],1845 dpm per mg of tissue
same,Radioactivity in conjunctiva/sclera,[3]; [10],5286 dpm per mg of tissue
same,Radioactivity in cornea,[3]; [10],5241 dpm per mg of tissue
same,Radioactivity in iris-cilary body,[3]; [10],2256 dpm per mg of tissue
same,Radioactivity in aqueous humor,[3]; [11],1176 dpm per mg of tissue
same,Radioactivity in conjunctiva/sclera,[3]; [11],2259 dpm per mg of tissue
same,Radioactivity in cornea,[3]; [11],3766 dpm per mg of tissue
same,Radioactivity in iris-cilary body,[3]; [11],1482 dpm per mg of tissue
same,Radioactivity in aqueous humor,[3]; [12],607 dpm per mg of tissue
same,Radioactivity in conjunctiva/sclera,[3]; [12],1673 dpm per mg of tissue
same,Radioactivity in cornea,[3]; [12],1861 dpm per mg of tissue
same,Radioactivity in iris-cilary body,[3]; [12],586 dpm per mg of tissue
same,Level reaching the iris-ciliary body from jet and/or stream of droplets relative to eyedrop,"[3]; 15 minute time point, 200 μg each",more than double
same,Radioactivity in ocular tissues,"[3]; all ocular tissues, all time points, both treatments",Significant radioactivity was detected
CC[C@@H]1C(=O)OC[C@@H]1Cc1cncn1C [pilocarpine nitrate],Drug available for potential systemic absorption,[4]; [13],25.7 µg
same,Fraction of drug absorbed into the eye,[4]; [13],0.41 µg
same,Drug left to be absorbed systemically,[4]; 25 μl drop loaded with 67.8 μg,67.4 µg
same,Drug penetrated the eye,[4]; 25 μl drop loaded with 67.8 μg,0.36 µg
